According to ChEMBL document CHEMBL3734677, “EVALUATION OF AROMATIC 6-SUBSTITUTED THIENOPYRIMIDINES AS SCAFFOLDS AGAINST PARASITES THAT CAUSE TRYPANOSOMIASIS, LEISHMANIASIS, AND MALARIA” (Medchemcomm, 2015):
One block for each compound: values may come before it.

Assays:
[1] = test system: Trypanosoma brucei brucei; test: Antiparasitic activity against bloodstream Trypanosoma brucei bruei CA427 after 48 hrs by cytometry; type: functional, organism-based; settings: CA427, 48 h
Plasmodium falciparum = test: Antiparasitic activity against Plasmodium falciparum D6; type: functional, organism-based; settings: Plasmodium falciparum, D6; read-out: EC50
Trypanosoma brucei [2] = test: Antiparasitic activity against Trypanosoma brucei after 48 hrs by cytometry; type: functional, organism-based
Leishmania major [3] = test: Antiparasitic activity against Leishmania major amastigotes; type: functional, organism-based; settings: Leishmania major; read-out: EC50
[4] = Selectivity ratio, ratio of EC50 for Plasmodium falciparum W2 to EC50 for Plasmodium falciparum D6; type: functional
Trypanosoma cruzi [5] = test: Antiparasitic activity against Trypanosoma cruzi; type: functional, organism-based
[6] = (§1) Cytotoxicity against human HepG2 cells by MTT assay; type: cell-based; settings: HepG2 cells, read-out: TC50 (the source's name)
[7] = Selectivity ratio, ratio of EC50 for Plasmodium falciparum C235 to EC50 for Plasmodium falciparum D6; type: functional
Leishmania major [8] = test: Antiparasitic activity against Leishmania major promastigotes; type: functional, organism-based; settings: Leishmania major; read-out: EC50
Trypanosoma cruzi [9] = test: Antiparasitic activity against Trypanosoma cruzi at 10 uM; type: functional
Trypanosoma brucei [10] = test: Antiparasitic activity against Trypanosoma brucei at 5 uM after 48 hrs by cytometry; type: functional
HepG2 = test: as §1; type: cell-based; settings: hepg2
[11] = Metabolic stability in rat Hepatocytes; type: ADME, cell-based, Hepatocyte
[12] = Plasma protein binding in human; type: ADME, cell-free
[13] = Metabolic stability in human microsomes; type: ADME, Microsome
[14] = Aqueous solubility of compound; type: physicochemical; settings: buffer

EC50 [1]: 0.26 µM
Compound: Fc1cccc(COc2ccc(Nc3ncnc4cc(C#C[C@@H]5CCCN5)sc34)cc2Cl)c1

Compound: Fc1cccc(COc2ccc(Nc3ncnc4ccc(-c5ccc(CN6CCOCC6)cc5)cc34)cc2Cl)c1
EC50 (Plasmodium falciparum): 0.063 µM | EC50 (Trypanosoma brucei [2]): 1 µM | EC50 (Leishmania major [3]): 5.91 µM | Ratio EC50 [4]: < 3 | EC50 (Trypanosoma cruzi [5]): 0.6 µM | CC50 [6]: 12.9 µM | Ratio EC50 [7]: < 3 | EC50 (Leishmania major [8]): 2.74 µM

Compound: Fc1cccc(COc2ccc(Nc3ncnc4ccc(-c5ccc(N6CCOCC6)cc5)cc34)cc2Cl)c1
inhibition at 10 µM (Trypanosoma cruzi [9]): 10.1% | EC50 (Plasmodium falciparum): 0.27 µM | EC50 (Trypanosoma brucei [2]): 1.9 µM | EC50 (Leishmania major [3]): > 15 µM | CC50 [6]: 9.6 µM | EC50 (Leishmania major [8]): 4.4 µM

Compound: Fc1cccc(COc2ccc(Nc3ncnc4sc(-c5ccc(CN6CCOCC6)cc5)cc34)cc2Cl)c1
EC50 (Plasmodium falciparum): 0.089 µM | EC50 (Leishmania major [3]): 4.2 µM | Ratio EC50 [4]: < 3 | EC50 (Trypanosoma cruzi [5]): 1.7 µM | inhibition at 5 µM (Trypanosoma brucei [10]): 60% | Activity (HepG2): Non-toxic | Ratio EC50 [7]: < 3 | EC50 (Leishmania major [8]): > 20 µM

Compound: Fc1cccc(COc2ccc(Nc3ncnc4ccc(-c5cccc(N6CCOCC6)c5)cc34)cc2Cl)c1
Stability [11]: Stable | EC50 (Leishmania major [3]): 7.98 µM | PPB [12]: > 99% | Stability [13]: Stable | Activity (HepG2): Non-toxic | solubility [14]: < 1 µM

Compound: CS(=O)(=O)CCNCc1ccc(-c2ccc3ncnc(Nc4ccc(OCc5cccc(F)c5)c(Cl)c4)c3c2)o1 [LAPATINIB]
CC50 [6]: > 35 µM

Compound: O=C(c1cccc(-c2cc3ncnc(Nc4ccc(OCc5cccc(F)c5)c(Cl)c4)c3s2)c1)N1CCCCC1
EC50 (Plasmodium falciparum): 1.17 µM | EC50 (Leishmania major [3]): 3.1 µM | EC50 (Trypanosoma cruzi [5]): 3.2 µM | inhibition at 5 µM (Trypanosoma brucei [10]): 46% | Activity (HepG2): Non-toxic | EC50 (Leishmania major [8]): > 20 µM

Compound: Fc1cccc(COc2ccc(Nc3ncnc4sc(-c5ccccc5)cc34)cc2Cl)c1
inhibition at 10 µM (Trypanosoma cruzi [9]): 42% | EC50 (Plasmodium falciparum): > 20 µM | EC50 (Trypanosoma brucei [2]): 1.7 µM | EC50 (Leishmania major [3]): > 15 µM | CC50 [6]: 10 µM | EC50 (Leishmania major [8]): > 20 µM

Compound: Cc1cc(-c2cc3ncnc(Nc4ccc(OCc5cccc(F)c5)c(Cl)c4)c3s2)cnc1N1CCOCC1
Stability [11]: Stable | EC50 (Plasmodium falciparum): 0.23 µM | EC50 (Trypanosoma brucei [2]): 0.084 µM | EC50 (Leishmania major [3]): > 3 µM | Ratio EC50 [4]: < 3 | PPB [12]: > 99% | EC50 (Trypanosoma cruzi [5]): 3.3 µM | Stability [13]: Stable | Activity (HepG2): Non-toxic | solubility [14]: < 1 µM | Ratio EC50 [7]: < 3 | EC50 (Leishmania major [8]): > 3 µM

Compound: Fc1cccc(COc2ccc(Nc3ncnc4ccc(-c5ccccc5)cc34)cc2Cl)c1
EC50 (Plasmodium falciparum): 0.79 µM | EC50 (Trypanosoma brucei [2]): 3.9 µM | EC50 (Leishmania major [3]): > 15 µM | EC50 (Trypanosoma cruzi [5]): 1.8 µM | CC50 [6]: 4.9 µM | EC50 (Leishmania major [8]): 4.05 µM
